Data as given in patent US20090123501A1, “INHIBITION OF THE SH2-DOMAIN CONTAINING PROTEIN TYR-PHOSPHATASE, SHP-1, TO ENHANCE VACCINES” (Baylor College of Medicine, priority 2007, published 2009).

How the values were obtained:
H-2D^b [1] = target: T1, H-2D^b (Mus musculus, UniProt P01899); experiment: MHC class I surface stabilization assay on RMA-S cells, H-2Db; type: binding; settings: RMA-S cells pulsed with peptide overnight, flow cytometry
T1 construct: lower relative expression of H-2D^b on RMA-S cells compared to H-2K^b; endogenous in cells; host or cells: RMA-S
T1 sequence (P01899 25-362): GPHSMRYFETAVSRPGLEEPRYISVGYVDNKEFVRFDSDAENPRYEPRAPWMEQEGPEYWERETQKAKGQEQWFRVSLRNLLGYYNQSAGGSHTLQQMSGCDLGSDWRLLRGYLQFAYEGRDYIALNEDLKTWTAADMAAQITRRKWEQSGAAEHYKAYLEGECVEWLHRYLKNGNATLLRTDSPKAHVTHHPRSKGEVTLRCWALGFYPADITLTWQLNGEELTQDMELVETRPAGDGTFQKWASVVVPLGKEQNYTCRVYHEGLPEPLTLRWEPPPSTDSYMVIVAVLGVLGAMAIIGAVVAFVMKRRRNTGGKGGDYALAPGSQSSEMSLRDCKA
T1 sequence (P01887 21-119 partner): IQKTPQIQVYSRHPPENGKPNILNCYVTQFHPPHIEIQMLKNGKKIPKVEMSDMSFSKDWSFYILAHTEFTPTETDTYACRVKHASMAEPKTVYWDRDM
Method: (§1) 10^6 RMA-S cells were incubated overnight at 37° C. with each of the five predicted at the concentrations indicated. Cells were stained with antibodies for H-2K^b (Y-3; ATCC-HB176) or H-2D^b (28-14-8S; ATCC-HB27) followed by a goat anti-mouse-FITC second step and MHC class I surface expression was analyzed by flow cytometry. Specific MFI is the mean fluorescent intensity of the sample-mean fluorescent intensity of goat anti-mouse-FITC second step alone. Error bars represent the standard deviation of triplicate measurements.
(§2) The binding affinity of the five predicted peptides was tested. In a surface stabilization assay using the TAP1 deficient cell line RMA-S. RMA-S cells were pulsed with peptide, at the indicated concentrations, and incubated overnight. Cells were stained with antibodies for H-2K^b (Y-3; ATCC-HB176) or H-2D^b (28-14-8S; ATCC-HB27) followed by a fluorescent-labeled secondary antibody and MHC class I surface expression was analyzed by flow cytometry.

TRAMP C2 tumors = experiment: DC vaccination of mice bearing ectopic TRAMP C2 tumors; type: in vivo, C57BL/6 mice; settings: for TRAMP C2 tumor growth (growth curves, mean tumor volumes): by peptide loaded on DC vaccine, single i.p. vaccination 2×10^6 DCs, vs untreated mice; for TRAMP C2 tumor growth rate (mean tumor volume at day 48 post-vaccination, ANOVA): by peptide, pooled across viral treatments, vs no vaccination
Method: BMDCs were prepared as described above, transduced with either Ad5-SHP-1-shRNA or the control Ad5-scrambled-shRNA at 40,000 viral particles/cell, and pulsed with one of the six peptides listed in Table 1 (OVA, an irrelevant epitope to TRAMP 2 tumors, served as a negative control peptide) or a lysate of TRAMP C2 cells as a positive control antigen. 6-8 week C57BL/6 mice, bearing TRAMP C2 tumors (7×10^6 cells injected s.c. on the dorsal flank three days prior to vaccination), were given a single i.p. vaccination with 2×10^6 treated DCs or left untreated. Tumors were measured (length and width using calipers) every 2-4 days until termination of the study and tumor volume was estimated using the formula: Tumor volume (mm3)=x^2y×0.5236, where x is the smaller tumor dimension, and y is the larger tumor dimension. A-G) TRAMP tumor growth curves for vaccines loaded with the indicated peptides. Error bars represent the standard error of the mean of 5 mice vaccinated in each treatment. […] H-I) ANOVA analysis of peptide function and SHP-1 function. Data represent the averages 10 mice per peptide treatment and 5 mice in the no treatment control group for H) and 35 mice per viral transduction treatment and 5 mice in the no treatment control group for I). The green diamonds represent the mean and 95% confidence interval for each group from the ANOVA. The black line is the mean of means for the study and red symbols indicate significant differences (p<0.05 by Tukey-Kramer HSD multiple comparisons test).
To determine if there was a significant difference between the various peptides used in these DC vaccinations, mice were pooled across viral treatments (Ad5-SHP-1 shRNA or Ad5-scrambled-shRNA) employing the same peptide. An ANOVA for differences in mean tumor volume at day 48 post-vaccination (the time at which the majority of the vaccinated tumor growth curves change slope) and Tukey-Kramer HSD multiple comparisons test.
Next experiments were conducted to determine if vaccines transduced with Ad5-SHP-1-shRNA inhibited tumor growth compared to transduction with Ad5-scrambled-shRNA or no vaccine treatment, irrespective of what peptide was used in the vaccine.

total splenocytes = experiment: T cell subsets in total splenocytes 7 days after DC vaccination, flow cytometry; type: in vivo, C57BL/6 mice; settings: by peptide, viral treatments pooled, day 7, vs no treatment control
Method: To determine the effect of SHP-1 inhibition on the initiation of T cell responses, BMDCs were cultured and CD11c^+ MACS purified as described above. […] Following peptide loading DCs were left untreated or transduced with one of 3 different adenoviral vectors: 1) Ad5-SHP-1-shRNA; 2) Ad5-scrambled-shRNA; or 3) Ad5-CMV-empty, an adenovirus carrying a CMV promoter expression vector but no insert. […] Using all combinations of peptide and virus treatment yielded 9 experimental vaccines and one no vaccine control. Vaccines (2×10^6 DCs) were injected i.p. into wt C57BL/6 mice. Seven days following vaccination mice were sacrificed and total splenocytes were analyzed by multi-color flow cytometry for the expression of several T cell subsets. CD3^+ CD8^+IFNγ^+ cells were characterized as CTL effectors, CD3^+ CD4^+IFNγ^+ cells were characterized as Th1 helper T cells, and CD4^+ FOXP3^+ cells were characterized as Treg cells. Flow cytometry data were analyzed by one-way analysis of variance (ANOVA) and Tukey-Kramer HSD multiple comparisons test for percentage of cells falling within each population following treatment. Cells were stained with anti-CD3, anti-CD8 and anti IFNγ to differentiate CD8^+ effectors and CD4^+ Th1 T cell skewing or anti-CD4 and anti-FOXP3 to determine Tregs. To determine if there was a peptide specific effects between the 3 different tumor antigens, viral treatments were pooled for each peptide exposure. Data represent the averages 6 mice per peptide treatment group and 2 mice in the no treatment control group. No significant differences were seen between peptides in the induction of Tregs or CD8^+ effector cells.
(§3) Following peptide loading DCs were left untreated or transduced with one of 3 different adenoviral vectors: 1) Ad5-SHP-1-shRNA; 2) Ad5-scrambled-shRNA; or 3) Ad5-CMV-empty, an adenovirus carrying a CMV promoter expression vector but no insert. Vaccines were injected i.p. into wt C57BL/6 mice and T cell skewing analyzed 7 days later by flow cytometry from total splenocytes. Cells were stained with anti-CD3, anti-CD8 and anti IFNγ for effector and Th1 cells or anti-CD4 and anti-FOXP3 for Tregs. For the peptide specific analysis viral treatments were pooled for each peptide exposure. Data represent the averages 6 mice per peptide treatment and two mice in the no treatment control group. The green diamonds represent the mean and 95% confidence interval for each group from the ANOVA. The black line is the mean of means for the study and red asterisk (*) indicates significant differences (p<0.05 by Tukey-Kramer HSD multiple comparisons test).
as §3, with “the SHP-1” for “the peptide”, “each viral treatment.” for “each peptide exposure.”, “and 2” for “and two”, “ANOVA. […]” for “ANOVA. The black line is the mean of means for the study and red asterisk (*) indicates significant differences (p<0.05 by Tukey-Kramer HSD multiple comparisons test).”

AP-1 signaling = experiment: AP-1-dependent secreted alkaline phosphatase reporter in RAW cells; type: cell-based, murine; settings: transient transfection, IFNγ or LPS stimulation
Method: Function of the mutant and wt SHP-1 constructs was tested in RAW cells by transient transfection of SHP-1 vectors along with a reporter construct expressing a secreted alkaline phosphatase driven by either an NFκB or AP-1 dependent promoter. NFκB and AP-1 are major transcription factors stimulated by toll-like receptor (TLR) and cytokine signaling in immune system cells, and represent likely pathways of SHP-1 inhibition on cellular activation. Cells were transfected with the appropriate construct, reporter and then stimulated with interferon-γ (IFNγ) or bacterial lipopolysaccharide (LPS) as ligands for cytokine and TLR receptors respectively.

H-2D^b [2] = target: T2, H-2D^b (mouse, UniProt P01887 21-119; P01899 25-309); experiment: RMA-S surface stabilization assay, flow cytometry with antibody 28-14-8S
T2 construct: whole, on cells;extracellular; MHC class I on RMA-S cells, detected with antibody 28-14-8S (ATCC-HB27) in a surface stabilization assay; also called MHC class 1 molecule H-2D^b
T2 sequence (MHC heavy, looked up): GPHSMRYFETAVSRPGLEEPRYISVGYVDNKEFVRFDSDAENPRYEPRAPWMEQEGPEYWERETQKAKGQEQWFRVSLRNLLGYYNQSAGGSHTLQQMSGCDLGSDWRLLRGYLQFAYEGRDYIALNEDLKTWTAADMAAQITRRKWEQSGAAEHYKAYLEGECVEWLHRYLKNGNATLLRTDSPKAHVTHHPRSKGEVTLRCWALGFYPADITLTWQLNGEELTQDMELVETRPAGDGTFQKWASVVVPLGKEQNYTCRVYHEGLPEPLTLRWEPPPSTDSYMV
T2 sequence (b2m, looked up): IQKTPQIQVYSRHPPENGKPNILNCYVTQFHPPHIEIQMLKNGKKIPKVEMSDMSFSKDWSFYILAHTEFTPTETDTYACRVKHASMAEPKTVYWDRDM
Method: as §1, with “10⁶” for “10^6”, “measurements. This is representative of 3 separate studies.” for “measurements.”
as §2, with “cytometry. […] STEAP₈₄₋₉₁ and STEAP₁₈₆₋₁₉₂ bound with an affinity near that of OVA₂₅₈₋₂₆₅, a well characterized strong binding H-2K^b epitope from chicken ovalbumin. […]” for “cytometry.”

H-2K^b = target: T3, H-2K^b (mouse, UniProt P01887 21-119; P01901 22-305, limits assumed); experiment: RMA-S surface stabilization assay, flow cytometry with antibody Y-3
T3 construct: whole, on cells;extracellular; MHC class I on RMA-S cells, detected with antibody Y-3 (ATCC-HB176) in a surface stabilization assay; also called MHC class 1 molecule H-2K^b
T3 sequence (MHC heavy, looked up): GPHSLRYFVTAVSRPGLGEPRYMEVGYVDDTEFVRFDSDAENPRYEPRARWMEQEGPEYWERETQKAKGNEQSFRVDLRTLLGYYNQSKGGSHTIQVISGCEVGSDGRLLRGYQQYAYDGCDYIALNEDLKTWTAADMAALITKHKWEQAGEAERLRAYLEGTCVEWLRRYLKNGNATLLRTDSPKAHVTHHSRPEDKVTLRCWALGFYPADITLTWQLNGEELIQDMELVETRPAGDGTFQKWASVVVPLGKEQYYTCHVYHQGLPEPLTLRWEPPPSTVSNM
T3 sequence (b2m, looked up): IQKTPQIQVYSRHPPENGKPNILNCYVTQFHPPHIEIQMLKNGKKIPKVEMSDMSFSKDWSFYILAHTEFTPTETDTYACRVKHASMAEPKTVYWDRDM
Method: as §1, with “10⁶” for “10^6”, “measurements. This is representative of 3 separate studies.” for “measurements.”
as §2, with “cytometry. […] STEAP₈₄₋₉₁ and STEAP₁₈₆₋₁₉₂ bound with an affinity near that of OVA₂₅₈₋₂₆₅, a well characterized strong binding H-2K^b epitope from chicken ovalbumin. […]” for “cytometry.”

Molecule: AQMNNRDCL [PSCA29-37]
- relative binding affinity to H-2Db (MHC class I surface expression) (H-2D^b [1]): did not appear to bind as well as some of the other peptides
- TRAMP C2 tumor growth (growth curves, mean tumor volumes) (TRAMP C2 tumors): strong inhibition of tumor growth
- TRAMP C2 tumor growth rate (mean tumor volume at day 48 post-vaccination, ANOVA) (TRAMP C2 tumors): significant decrease in tumor growth rate

Molecule: LLLGTVHAL [STEAP262-270]
- relative binding affinity to H-2Db (MHC class I surface expression) (H-2D^b [1]): no detectable binding at any peptide concentration

Molecule: SIINFEKL [OVA258-265, reference compound]
- TRAMP C2 tumor growth (growth curves, mean tumor volumes) (TRAMP C2 tumors): equivalent to mice receiving no vaccine treatment

Molecule: SVYDFFVWL [Trp-2, reference compound]
- Th1 skewing (total splenocytes): significant

Molecule: VSKINRTEM [STEAP327-335]
- Th1 skewing (total splenocytes): significant
- relative binding affinity to H-2Db (MHC class I surface expression) (H-2D^b [1]): did not appear to bind as well as some of the other peptides
- TRAMP C2 tumor growth (growth curves, mean tumor volumes) (TRAMP C2 tumors): strong inhibition of tumor growth
- TRAMP C2 tumor growth rate (mean tumor volume at day 48 post-vaccination, ANOVA) (TRAMP C2 tumors): significant decrease in tumor growth rate

Molecule: ca-SHP-1: constitutively active SHP-1 mutant with N-terminal SH2 domain deleted, HA-tagged (SEQ ID NO:9)
- AP-1 signaling (AP-1 signaling): suppressing AP-1 signaling

Molecule: VSKINRTEM [STEAP327-335]
- binding result (H-2D^b [2]): binds

Molecule: AQMNNRDCL [PSCA29-37]
- binding result (H-2D^b [2]): binds

Molecule: LTFLYTLL [STEAP84-91]
- binding result (H-2K^b): binds

Molecule: RSYRYKLL [STEAP186-192]
- binding result (H-2K^b): binds
